Tests used:
[1] = test system: MMP-2, MMP-9, MMP-13 expression in HTM cells; experiment: MMP expression in HTM cells (Examples 17, 18); format: cell-based, human; conditions: for MMP-9 expression compared to PA+NE-tPA treated cells: p<0.0001
sheep = experiment: Sheep given tPA or arginine concurrently with prednisolone (Example 3 Protocol 2, Example 4); format: in vivo; conditions: 4.23 mg arginine intravitreal plus prednisolone (OS) compared to tPA and prednisolone (OD)
Protocol: Protocol 2. In a second set of experiments, arginine was added to the BSS vehicle administered to the left eye to control for the relatively high concentration of the amino acid in the commercially available tPA lyophilisate. In these experiments all right eyes received 0.1 mg tPA, which concomitantly delivered 4.23 mg of arginine into the vitreous, and the left eye received this same amount of arginine, absent the tPA. On Day 1, prednisolone treatments were also begun simultaneously on both eyes.
Methods. In this experiment, the inventor sought to detect the effects of tPA treatment on prevention of steroid-induced IOP elevation. In 4 sheep tPA was injected in one eye (100 μg) and they were started on prednisolone acetate three times a day in both eyes. Animals were monitored for 11 days on continuous treatment.

[2] = test system: sheep of the Coriedale breed; experiment: IOP in prednisolone-treated sheep after tPA injection into the anterior chamber (Example 9); format: in vivo
Protocol: Methods. Lyophilized IPA, obtained as Acetilyse® from Boehringer Ingelheim S.A. (Buenos Aires) containing arginine. was used. Five sheep of the Coriedale breed were selected. Initially all eyes received instillation of 1% prednisolone 3 times/day for 10 days to elevate their IOP from 10 mm Hg to about 23 mm Hg. Then, 0.0001 μg was injected into one of the eyes and its effect was followed for up to 55:00 hrs while the instillation of prednisolone continued in both eyes. The same protocol was implemented for the 0.001 and 0.01 μg amounts (after extended washout) in the contra lateral eyes. Arginine, which is associated with 0.01 ug tPA, was injected alone and had no effect.

Tg-MYOCY437H mice = conditions: systemic and topical administration; cited from earlier work
[3] = test system: Mmp-2, Mmp-9, Mmp-13 mRNA in angle ring tissues; experiment: Mmp expression in Tg-MYOCY437H angle ring tissues (Example 19); format: in vivo, mouse; conditions: 5 days treatment
Protocol: Eyes were flash frozen in liquid nitrogen after outflow facility determination and subsequently dissected on ice to obtain the angle ring tissues containing the TM, as previously described (Kumar, Shah et al. 2013). Dissected TM tissues were immersed in RNAlater solution (Invitrogen, Waltham, MA, USA) and then snap-frozen and stored at −80° C. until RNA extraction. Tissue collected was pooled (four eyes) and homogenized in TRIzol reagent for RNA isolation, per manufacturer's instructions (Life Technologies, Carlsbad, CA, USA). RNA concentration was determined with a Nanodrop ND-1000 Spectrophotometer (Thermo Scientific, Wilmington, DE, USA). cDNA was synthesized by using High-Capacity cDNA
Reverse Transcription Kit (Applied Biosystems, Waltham, MA, USA) according to manufacturer's protocol. Quantitative real-time PCR (qRT-PCR) was performed by using Green-2-Go qPCR Mastermix-ROX (Bio Basic, Amherst, NY, USA) on a QuantStudio 6 Flex thermal cycler (Applied Biosystems, Carlsbad, CA, USA). mRNA expression of Plat, Plait, Pai-1, Mmp-2, Mmp-9, and Mmp-13 in angle ring tissues was determined. Primers were designed by using Primer-BLAST (haps://www.ncbi.nlm.nih.gov/tools/primer-blast/index.cgi?LINK_LOC=BlastHome; in the public domain); primer sequences are listed in Table 2. Primer specificity was confirmed by agarose gel electrophoresis and multiple-sized amplification products were absent on inspection of melting curves. Target mRNA expression values were normalized to the expression levels of Rps11 (ribosomal protein S11). The relative fold change was calculated by using the ΔΔCt method (Hu, Wang et al. 2015). Outliers identified via the Thompson Tau test were removed from analysis.

C[C@]12N[C@H](Cc3ccccc31)c1ccccc12 [MK-801]
MMP-9 expression compared to PA+NE-tPA treated cells ([1]; inhibitor added to PA+NE-tPA): significantly lower
MMP-2 expression compared to PA+NE-tPA treatment ([1]; inhibitor added to PA+NE-tPA, p<0.05): significant reduction

N=C(N)NCCC[C@H](N)C(=O)O [arginine]
effect of arginine alone (sheep): failed to reduce outflow facility
effect of arginine injected alone ([2]; amount associated with 0.01 ug tPA): no effect

CC(=O)OCC(=O)[C@@]1(O)CC[C@H]2[C@@H]3CCC4=CC(=O)C=C[C@]4(C)[C@H]3[C@@H](O)C[C@@]21C [prednisolone, prednisolone acetate]
MMP-13 expression (FIG. 17D) ([1]; PA treated HTM cells): below detection limits
IOP after prednisolone ([2]; 1% prednisolone 3 times/day for 10 days, from 10 mm Hg): about 23 mm Hg

O=C([O-])CCCc1ccccc1.[Na+] [PBA, sodium phenylbutarate]
effect on IOP (Tg-MYOCY437H mice): effective in reducing IOP
Mmp-9 expression compared to BSA treated eyes [3]: higher
Mmp-13 expression compared to BSA treated eyes [3]: did not show any difference
Mmp-2 expression compared to BSA treated eyes ([3]; p>0.05): no significant difference

B1: RAP: inhibitor of LRP1 (protein, UniProt P30533 35-357, looked up)
Alpha-2-macroglobulin …: YSREKNQPKPSPKRESGEEFRMEKLNQLWEKAQRLHLPPVRLAELHADLKIQERDELAWKKLKLDGLDEDGEKEARLIRNLNVILAKYGLDGKKDARQVTSNSLSGTQEDGLDDPRLEKLWHKAKTSGKFSGEELDKLWREFLHHKEKVHEYNVLLETLSRTEEIHENVISPSDLSDIKGSVLHSRHTELKEKLRSINQGLDRLRRVSHQGYSTEAEFEEPRVIDLWDLAQSANLTDKELEAFREELKHFEAKIEKHNHYQKQLEIAHEKLRHAESVGDGERVSRSREKHALLEGRTKELGYTVKKHLQDLSGRISRARHNEL
MMP-9 expression compared to PA+NE-tPA treated cells ([1]; inhibitor added to PA+NE-tPA): significantly lower
